Source: patent publication US11440923B2, “Substituted macrocyclic indole derivatives” (Bayer Aktiengesellschaft, priority 2017, dated 2022)

Tests used:
[1] = tested on: SUDHL10 cells; test: Induction of cytotoxicity in SUDHL10 cells (Assay 6); format: cell-based; conditions: 5 h, CellTiter-Glo; read-out: Cytotox SUDHL10 IC50 (median)
Outline: (§1)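 Cells plated overnight at 37 °C, then exposed to compound for 5 h in a humidified incubator at 37 °C. Viability read by CellTiter-Glo luminescence after 15 min shaking at room temperature; cell-free medium served as control.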

[2] = tested on: SUDHL5 cells; test: Induction of cytotoxicity in SUDHL5 cells (Assay 6); format: cell-based; conditions: 5 h, CellTiter-Glo; read-out: Cytotox SUDHL5 IC50 (median)
Outline: as §1

[3] = target: MBP-MCL1 (Homo sapiens (Human), UniProt Q07820, K194A/K197A/R201A); test: X-ray crystallographic analysis of MBP-MCL1 in complex with inhibitor; format: binding; conditions: MBP-MCL1 co-crystal structure
Description: For clarity only the ligand non-hydrogen atoms are shown. Carbon atom C7 unambiguously features the (R)-configuration and the bound atropisomer as defined by the C4-C38 axis is the (Ra)-configuration.
The X-ray crystallographic analysis described in the MCL-1 structural analysis section infra, provides an atomic resolution view of the relative arrangement of the atoms of MBP-MCL1 in complex with example 47.

[4] = target: MCL-1 (Homo sapiens (Human), UniProt Q07820, K194A/K197A/R201A); test: Protein-protein interaction assay MCL-1/Noxa BH3 peptide (MCL-1 assay, TR-FRET); format: binding; conditions: read-out: MCL-1 Assay IC50 (median)
Outline: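 IC50 came from a 4-parameter regression of the 665/620 nm emission ratio, normalized to DMSO controls. The mix held 1 nM MBP-fused MCL-1 (residues 173-321), a biotin-Noxa BH3 tracer and compound in Tris buffer pH 7, incubated 10 min plus 1 h at 22° C., then overnight at 4° C.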

[5] = tested on: A2058 cells; test: Antiproliferation assay A2058 (Assay 7); format: cell-based; conditions: 72 h, CellTiter-Glo; read-out: Antiproli A2058 IC50
Description: (§2) Assessment of the Anti-Proliferative Effect of Compounds in Different Cell Lines
(§3) The impact of compounds on the proliferation of different cell lines was assessed using the CellTiter-Glo® Luminescent Cell Viability reagent from Promega (G7573).
(§4) In parallel, cells were plated in a reference (day 0) plate for time zero determination. Cells were incubated in a humidified incubator at 37° C. overnight.
(§5) Rim wells were excluded. The cells were incubated for 72 h hours in a humidified incubator at 37° C. The day 0 plate was measured by adding 30 μL/well of CTG solution (CellTiter-Glo® Luminescent Cell Viability reagent, Promega G7573) to time zero wells in the reference plate followed by a 10 minutes incubation and luminescence reading at 0.1 ms. using the PHERAstar FS microplate reader (BMG Labtech).
(§6) After 72 h incubation, the treated plates were measured in the same way as the day 0 plate mentioned above. The Bella DRC Master Sheet was used to calculate IC50s, with CI=day 0 values and C0=DMSO control values.

[6] = tested on: SK-BR-3 cells; test: Antiproliferation assay SK-BR-3 (Assay 7); format: cell-based; conditions: 72 h, CellTiter-Glo; read-out: Antiproli SK-BR-3 IC50 median
Description: as §2, §3, §4, §5, §6

[7] = tested on: HMC-1-8 cells; test: Antiproliferation assay HMC-1-8 (Assay 7); format: cell-based; conditions: 72 h, CellTiter-Glo; read-out: Antiproli HMC-1-8 IC50 median
Outline: (§7)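 Cells are plated alongside a time-zero reference plate and held overnight at 37 °C. Treated plates are incubated 72 h, then ATP-based luminescence (CellTiter-Glo) is read. IC50 uses day 0 as baseline and DMSO as untreated control.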

[8] = tested on: MV-4-11 cells; test: Antiproliferation assay MV-4-11 (Assay 7); format: cell-based; conditions: 72 h, CellTiter-Glo; read-out: Antiproli MV-4-11 IC50 median
Description: as §2, §3, §4, §5, §6

[9] = tested on: A2780 cells; test: Antiproliferation assay A2780 (Assay 7); format: cell-based; conditions: 72 h, CellTiter-Glo; read-out: Antiproli A2780 IC50 median
Description: as §2, §3, §4, §5, §6

[10] = tested on: NCI-H23 cells; test: Antiproliferation assay NCI-H23 (Assay 7); format: cell-based; conditions: 72 h, CellTiter-Glo; read-out: Antiproli NCI-H23 IC50
Description: as §2, §3, §4, §5, §6

[11] = tested on: SK-MEL-2 cells; test: Antiproliferation assay SK-MEL-2 (Assay 7); format: cell-based; conditions: 72 h, CellTiter-Glo; read-out: Antiproli SK-MEL-2 IC50 median
Description: as §2, §3, §4, §5, §6

[12] = tested on: AMO-1 cells; test: Antiproliferation assay AMO-1 (Assay 7); format: cell-based; conditions: 72 h, CellTiter-Glo; read-out: Antiproli AMO-1 IC50 median
Outline: as §7

[13] = tested on: REC-1 cells; test: Antiproliferation assay REC-1 (Assay 7); format: cell-based; conditions: 72 h, CellTiter-Glo; read-out: Antiproli REC-1 IC50
Description: as §2, §3, §4, §5, §6

[14] = tested on: SNU-389 cells; test: Antiproliferation assay SNU-389 (Assay 7); format: cell-based; conditions: 72 h, CellTiter-Glo; read-out: Antiproli SNU-389 IC50
Description: as §2, §3, §4, §5, §6

Sequence of MBP-MCL1 (Q07820 whole entry, looked up, stated change not applied): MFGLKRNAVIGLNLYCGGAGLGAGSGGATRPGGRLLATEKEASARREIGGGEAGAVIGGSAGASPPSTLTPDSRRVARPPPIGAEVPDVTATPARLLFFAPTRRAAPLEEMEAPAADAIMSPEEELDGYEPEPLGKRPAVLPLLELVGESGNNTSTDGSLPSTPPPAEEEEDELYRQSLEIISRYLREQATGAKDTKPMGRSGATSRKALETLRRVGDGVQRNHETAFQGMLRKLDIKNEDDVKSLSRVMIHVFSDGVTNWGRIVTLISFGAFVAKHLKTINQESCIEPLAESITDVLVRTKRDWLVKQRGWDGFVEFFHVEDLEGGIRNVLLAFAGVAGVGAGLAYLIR
Sequence of MCL-1 (Q07820 whole entry, looked up, stated change not applied, the tested form may be a part): as the sequence (Q07820 whole entry, looked up, stated change not applied) above

Row | interaction with the target MCL1 shown by X-ray structure of the complex [3] | IC50 [4] [µM] | IC50 [6] [µM] | IC50 [8] [µM] | IC50 [9] [µM] | IC50 [10] [µM] | IC50 [11] [µM] | IC50 [14] [µM] | Compound | IC50 [1] [µM] | IC50 [2] [µM] | IC50 [5] [µM] | IC50 [7] [µM] | IC50 [12] [µM] | IC50 [13] [µM]
1 | clear and direct interaction | 0.00037 | – | – | – | – | – | – | CCc1c2c(nn1C)[C@@H](CCN1CCOCC1)OCCCCn1c(C(=O)O)c(CCCOc3cccc4cc(F)ccc34)c3ccc(Cl)c-2c31 [Example 47, (+)-4-chloro-3-ethyl-7-{3-[(6-fluoronaphthalen-1-yl)oxy]propyl}-2-methyl-(15R)-[2-(morpholin-4-yl)ethyl]-2,10,11,12,13,15-hexahydropyrazolo[4′,3′:9,10][1,6]oxazacycloundecino[8,7,6-hi]indole-8-carboxylic Acid] | 0.0079 | 0.0082 | – | – | – | –
2 | – | – | 7.3 | 1.75 | 14.4 | 6.98 | 11.6 | – | Cc1c2c(nn1C)C(CCN1CCOCC1)OCCCCn1c(C(=O)O)c(CCCOc3cccc4ccccc34)c3cccc-2c31 (centres unmarked) [Example 05] | – | – | 12.8 | 6.29 | 9.47 | –
3 | – | – | – | 1.75 | 14.3 | – | – | 10.7 | Cc1c2c(nn1C)C(CCN1CCOCC1)OCCCCn1c(C(=O)O)c(CCCOc3cccc4ccccc34)c3cccc-2c31 (centres unmarked) [Example 04] | – | – | – | – | 2.56 | 21
